Measured values from PMC9122897, “SHR1032, a novel STING agonist, stimulates anti-tumor immunity and directly induces AML apoptosis” (Scientific Reports, 2022).

What was measured:
THP1-STING-WT cells = experiment: RNA-seq differentially expressed genes; format: cell-based, human; settings: 1 µM, 4 h
Procedure: (§1) Figure 5 Cell apoptosis induced by SHR1032 in AML cell lines is independent of type I interferon. (a–d) RNA-Seq analysis of THP1-STING-R232, THP1-STING-KO and MV4-11 AML cells treated with 1 µM of SHR1032 for 4 h. […] (d) ANNEXIN V staining analysis with flow cytometry in MV4-11, MOLM-16, THP1-STING-WT and THP1-STING-KO cells. (e) Cell viability analysis by CellTiter Glo in THP1-IRFAR2-WT or -KO cells.
(§2) RNA was extracted from cells using RNeasy Plus Mini Kit (Qiagen). Library preparation with NEBNext Ultra II with PolyA selection, sequencing with NovaSeq and data analysis was performed by Admera Health, New Jersey. The De-Seq2 (version 1.14.1) was used to do the differential analysis. Gene expression levels were quantified as Fragments Per Kilobase Million (FPKM). Gene expression with FPKM value ≥ 0.5 were selected and Log2-transformed for the Differential Gene Expression (DEGs) analysis using iDEP (http://bioinformatics.sdstate.edu/idep/). DEGs were defined by p < 0.05 within each indicated paired-comparison and then used for Gene Ontology Analysis and heatmap generation. The Gene Ontology Analysis was done using Enrichr. The heatmap was created using R package gplots (version 3.1.1), function heatmap.2.

MV4-11 cells [1] = experiment: RNA-seq differentially expressed genes; format: cell-based, human; settings: MV4-11, 1 µM, 4 h
Procedure: as §1, §2

MOLM-16 cells = experiment: CellTiter-Glo cell growth; format: cell-based; settings: Homo sapiens, MOLM16; MOLM-16, CellTiter Glo
Procedure: (§3) (a–d) AML cells were treated with STING agonists and standard of care cytarabine, and cell viability was measured by CellTiter Glo in (a) THP1-STING-R232, (b) THP1-STING-KO, (c) MV-4-11 and (d) MOLM-16. (e) MV-4-11, MOLM-16 and THP1-STING-KO cells were stimulated with 1 µM of SHR1032 for the indicated time points. The amount of pTBK1, total TBK1, pSTING, total STING and α-tubulin was measured by Western blot. pSTING phosphorylated STING. THP1 reporter cells were treated for 24 h with a total of 100 k cells and 150 ul media in each well a 96-well plate. Following the incubation, 20 µl of supernatant was transferred to an opaque 96 well ½ area plate and incubated for 30 s with 50 µl of QUANTI-Luc substrate (InvivoGen) per manufacturer’s instructions. Luminescence signal was measured using Tecan infinite M1000. EC50 values were calculated using non-linear regression analysis of GraphPad Prism. Cell growth was monitored by CellTiter-Glo Luminescent Cell Viability Assay (Promega) per manufacture’s protocol. GI50 values were calculated using non-linear regression analysis of GraphPad Prism. Cell lysates for western blotting were made in RIPA buffer (Sigma) with Halt Protease and Phosphatase Inhibitors (Thermo Scientific). Antibodies against pSTING, TBK1, pTBK1 and tubulin were purchased from Cell Signaling Technologies, and anti-STING was purchased from Protein Tech.

MV4-11 cells [2] = experiment: CellTiter-Glo cell growth; format: cell-based; settings: Homo sapiens; MV4-11, CellTiter Glo
Procedure: as §3

THP1-STING-R232 cells = experiment: IFNβ ELISA; format: cell-based, human; settings: THP1-STING-R232, 5 h, vs ADU-S100
Procedure: (§4) Figure 2 SHR1032 specifically and potently activates STING signaling pathway. IRF luciferase reporter assays in (a) THP1-STING-R232, THP1-STING-H232, THP1-STING-HAQ, and THP1-STING-KO cells. Cells were stimulated for 24 h with the indicated STING compounds and assessed for luciferase activity. IFNβ production and activation of cGAS-STING signaling pathway in (b) human THP1-STING-R232, human PBMCs from a donor homozygous for the R232 variant, cynomolgus PBMC, and mouse RAW164.7 macrophage cells were treated with STING agonists for 5 h. IFNβ in media was quantified by human or mouse ELISA kits respectively. (c) THP1-STING-R232 cells and mouse RAW164.7 macrophage cells were stimulated with 40 µM of ADU-S100 or 10 µM of SHR1032 for the indicated time points. The amount of pTBK1, total TBK1, STING and α-tubulin was measured by western blotting.
(§5) Human and Cynomolgous PBMC’s were thawed and spun down in Lymphocyte media (ZENBIO) and resuspended in media to 1.5 x 10^6 cells/ml density. […] Human and monkey IFN-β protein concentration was measured using human IFN-β Quantikine ELISA Kits (R&D Systems) per manufacture’s protocol. Mouse IFN-β was measured using mouse IFN-β Quantikine ELISA Kits (R&D Systems) per manufacture’s protocol. Mouse TNFα, IFN-β and IL-6 in the tumor lysates and plasma was measured by Quantikine ELISA Kits (R&D Systems) per manufacture’s protocol.

[3] = system: mouse RAW164.7 macrophage cells; experiment: IFNβ ELISA; format: cell-based; settings: 5 h, vs ADU-S100
Procedure: as §4, §5

human PBMCs = experiment: IFNβ ELISA; format: cell-based; settings: 5 h, vs ADU-S100
Procedure: as §4, §5

CCn1nc(C)cc1C(=O)Nc1nc2cc(C(N)=O)cc(OC)c2n1CCC[C@H]1COc2cc(C(N)=O)cc3nc(NC(=O)c4cc(C)nn4CC)n1c23 [SHR1032]
Genes differentially expressed: Down-expressed (THP1-STING-WT cells): 73
Genes differentially expressed: Up-expressed (THP1-STING-WT cells): 224
Genes differentially expressed: Down-expressed (MV4-11 cells [1]): 216
Genes differentially expressed: Up-expressed (MV4-11 cells [1]): 324
GI50 (MOLM-16 cells): 2.6 nM
GI50 (MV4-11 cells [2]): 1 nM
IFNβ induction (THP1-STING-R232 cells): much higher level of IFNβ
mouse IFNβ production [3]: lower than that with that of ADU-S100, but still detectable
human IFNβ production (human PBMCs): much greater amount of human IFNβ than ADU-S100
